Reference: ChEMBL document CHEMBL1133338, “Novel 3-(4-piperidinylthio)-1H-indoles as potent nonopioid orally active central analgesics” (Bioorg Med Chem Lett, 2000)
pKi: −log10 of the molar value.

Experiments:
Mus musculus [1] = test: Compound (at 30 mg/kg) was evaluated in vivo for the inhibition of phenylbenzoquinone induced painful reactions in mice; assay type: functional
Mus musculus [2] = test: In vivo analgesic activity in hot plate test in mice; assay type: functional
Mus musculus [3] = test: In vivo analgesic activity in phenylbenzoquinone-induced writhing test in mice; assay type: functional
Rattus norvegicus [4] = test: Compound after peroral administration was tested for inhibition of kaolin-induced arthritis in rats; assay type: functional; conditions: po
Rattus norvegicus [5] = test: Compound (at 60 mg/kg perorally) was tested for inhibition of Freund's adjuvant-induced polyarthritis in rats; assay type: functional; conditions: route oral
[6] = molecular target: Sodium-dependent serotonin transporter (Rattus norvegicus, UniProt P31652); test: Binding affinity on Serotonin transporter was determined in rat
Sequence of Sodium-dependent serotonin transporter (P31652 whole entry): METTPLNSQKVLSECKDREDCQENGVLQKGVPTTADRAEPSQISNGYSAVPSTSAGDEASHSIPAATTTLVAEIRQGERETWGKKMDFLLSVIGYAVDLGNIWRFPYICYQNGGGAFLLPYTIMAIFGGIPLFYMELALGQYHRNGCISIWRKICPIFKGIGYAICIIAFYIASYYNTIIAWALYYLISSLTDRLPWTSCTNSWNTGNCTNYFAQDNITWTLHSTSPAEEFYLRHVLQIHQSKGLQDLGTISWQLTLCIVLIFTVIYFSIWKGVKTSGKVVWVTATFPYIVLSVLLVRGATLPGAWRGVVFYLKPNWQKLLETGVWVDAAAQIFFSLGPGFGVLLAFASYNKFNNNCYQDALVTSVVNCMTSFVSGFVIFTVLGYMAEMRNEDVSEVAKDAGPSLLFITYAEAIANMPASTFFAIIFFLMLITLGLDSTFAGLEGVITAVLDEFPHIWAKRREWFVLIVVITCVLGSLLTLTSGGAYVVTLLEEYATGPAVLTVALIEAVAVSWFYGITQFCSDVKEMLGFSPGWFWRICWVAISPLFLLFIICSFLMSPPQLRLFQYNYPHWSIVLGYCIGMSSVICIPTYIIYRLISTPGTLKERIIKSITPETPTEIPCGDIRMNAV

Mus musculus [7] = test: Effective dose in mice after intraperitoneal administration by tail pinch test; assay type: functional; conditions: ip
Mus musculus [8] = test: Compound (at 30 mg/kg) was evaluated in vivo for the inhibition of painful reactions in mice in the hot plate test; assay type: functional
Mus musculus [9] = species: Mus musculus; test: Effective dose in mice by tail pinch test
Rattus norvegicus [10] = species: Rattus norvegicus; test: Compound was tested for inhibition of Freund's adjuvant-induced polyarthritis in rats; assay type: functional
Rattus norvegicus [11] = species: Rattus norvegicus; test: Compound was tested for inhibition of kaolin induced arthritis in rats

With `CC(C)N1CCC(Sc2c[nH]c3ccc(Cl)cc23)CC1` the inhibition in vivo at 30 mg/kg (Mus musculus [1]) was 38%.

Work on `CON1CCC(Sc2c[nH]c3ccc(Cl)cc23)CC1` yielded an ED50 (Mus musculus [2]) of 2.3 mg/kg and an ED50 (Mus musculus [3]) of 1.4 mg/kg.

Work on `CN1CCC(Sc2c[nH]c3ccc(Cl)cc23)CC1` yielded an ED50 (Rattus norvegicus [4]) of 4.9 mg/kg, an inhibition in vivo at 60 mg/kg (Rattus norvegicus [5]) of 62% and a pKi [6] of 8.52. The ED50 (Mus musculus [2]) was 16.9 mg/kg, the ED50 (Mus musculus [3]) was 4 mg/kg and the ED50 (Mus musculus [7]) was 25.3 mg/kg.

`Cc1[nH]c2ccc(Br)cc2c1SC1CCNCC1` was tested, and the ED50 (Mus musculus [2]) was 3.1 mg/kg and the ED50 (Mus musculus [3]) was 0.7 mg/kg.

Work on `Cc1[nH]c2ccc(Cl)cc2c1SC1CCNCC1` yielded an ED50 (Mus musculus [2]) of 9.9 mg/kg and an ED50 (Mus musculus [3]) of 0.8 mg/kg.

With `CCCC(=O)N1CCC(Sc2c[nH]c3ccc(Cl)cc23)CC1` the ED50 (Mus musculus [2]) was 22.7 mg/kg and the ED50 (Mus musculus [3]) was 8.9 mg/kg.

In the case of `CN1CCC(Sc2c[nH]c3ccc(O)cc23)CC1`, the inhibition in vivo at 30 mg/kg (Mus musculus [1]) was 9%.

In the case of `Cc1[nH]c2ccc(F)cc2c1SC1CCN(C)CC1`, the ED50 (Mus musculus [3]) was 35.6 mg/kg.

With `Cc1ccc2[nH]cc(SC3CCN(C)CC3)c2c1` the inhibition in vivo at 30 mg/kg (Mus musculus [1]) was 25%.

For `CN1CCC([S+]([O-])c2c[nH]c3ccc(Cl)cc23)CC1` (stereo not given), the inhibition in vivo at 30 mg/kg (Mus musculus [1]) was 44%.

In the case of `CON1CCC(Sc2c[nH]c3ccc(Br)cc23)CC1`, the ED50 (Mus musculus [2]) was 3.2 mg/kg and the ED50 (Mus musculus [3]) was 1.6 mg/kg.

In the case of `CON1CCC(Sc2cn(C)c3ccc(C(=O)O)cc23)CC1`, the inhibition in vivo at 30 mg/kg (Mus musculus [1]) was 25%.

`O=CN1CCC(Sc2c[nH]c3ccc(Br)cc23)CC1` showed an inhibition in vivo at 30 mg/kg (Mus musculus [1]) of 31%.

`O=S(=O)(c1c[nH]c2ccc(Cl)cc12)C1CCNCC1` was tested, and the ED50 (Mus musculus [2]) was 8.4 mg/kg and the ED50 (Mus musculus [3]) was 12.5 mg/kg.

For `Cc1[nH]c2ccc(F)cc2c1SC1CCNCC1`, the ED50 (Mus musculus [2]) was 12.7 mg/kg and the ED50 (Mus musculus [3]) was 5.9 mg/kg.

With `Cc1[nH]c2ccc(C(F)(F)F)cc2c1SC1CCNCC1` the ED50 (Mus musculus [3]) was 19.4 mg/kg and the inhibition in vivo at 30 mg/kg (Mus musculus [8]) was 41%.

For `Cc1c(SC2CCNCC2)c2cc(Cl)ccc2n1Cc1ccc(Cl)cc1`, the inhibition in vivo at 30 mg/kg (Mus musculus [1]) was 27%.

For `CN1CCC(S(=O)(=O)c2c[nH]c3ccc(Cl)cc23)CC1`, the ED50 (Mus musculus [2]) was 16 mg/kg and the ED50 (Mus musculus [3]) was 5.4 mg/kg.

`CN1CCC(Sc2cn(C)c3ccc(Cl)cc23)CC1` gave an ED50 (Mus musculus [2]) of 9.3 mg/kg and an ED50 (Mus musculus [3]) of 3.9 mg/kg.

For `CC(C)c1ccc2[nH]cc(SC3CCN(C)CC3)c2c1`, the inhibition in vivo at 30 mg/kg (Mus musculus [1]) was 48%.

`CN1CCC(Sc2c[nH]c3ccccc23)CC1` was tested, and the inhibition in vivo at 30 mg/kg (Mus musculus [1]) was 26%.

Work on `Clc1ccc(-c2[nH]c3ccc(Cl)cc3c2SC2CCNCC2)cc1` yielded an inhibition in vivo at 30 mg/kg (Mus musculus [1]) of 26%.

`CC(=O)N1CCC(Sc2c[nH]c3ccc(Br)cc23)CC1` was tested, and the ED50 (Mus musculus [2]) was 2.8 mg/kg and the ED50 (Mus musculus [3]) was 2.9 mg/kg.

`CCCCn1cc(SC2CCN(C)CC2)c2cc(Br)ccc21` showed an inhibition in vivo at 30 mg/kg (Mus musculus [1]) of 21%.

For `COc1ccc2[nH]cc(SC3CCN(C)CC3)c2c1`, the ED50 (Mus musculus [3]) was 24.9 mg/kg.

For `CCN1CCC(Sc2c[nH]c3ccc(Cl)cc23)CC1`, the ED50 (Mus musculus [2]) was 33.3 mg/kg and the inhibition in vivo at 30 mg/kg (Mus musculus [1]) was 42%.

`Clc1ccc2[nH]cc(SC3CCNCC3)c2c1` was tested, and the ED50 (Mus musculus [2]) was 1.2 mg/kg and the ED50 (Mus musculus [3]) was 0.3 mg/kg.

Compound `CN1CCC(Sc2c[nH]c3ccc(I)cc23)CC1` has an ED50 (Mus musculus [3]) of 54.2 mg/kg.

Compound `CC(=O)N1CCC(Sc2c[nH]c3ccc(Cl)cc23)CC1` has an ED50 (Mus musculus [2]) of 3.8 mg/kg and an ED50 (Mus musculus [3]) of 2.9 mg/kg.

Work on `CCOC(=O)N1CCC(Sc2c[nH]c3ccc(Br)cc23)CC1` yielded an ED50 (Mus musculus [2]) of 27.3 mg/kg and an ED50 (Mus musculus [3]) of 6.3 mg/kg.

For `Clc1ccc2[nH]cc(SC3CCN(CCc4ccccc4)CC3)c2c1`, the ED50 (Mus musculus [3]) was 8.9 mg/kg and the inhibition in vivo at 30 mg/kg (Mus musculus [8]) was 14%.

In the case of `Clc1ccc2[nH]cc(SC3CCN(Cc4ccccc4)CC3)c2c1`, the ED50 (Mus musculus [3]) was 9.7 mg/kg and the inhibition in vivo at 30 mg/kg (Mus musculus [8]) was 32%.

With `CN1CC[C@]23c4c5ccc(O)c4O[C@H]2[C@@H](O)C=C[C@H]3[C@H]1C5` [MORPHINE] the ED50 (Mus musculus [9]) was 15 mg/kg, the Dose (Rattus norvegicus [10]) was 5.2 mg/kg and the ED50 (Mus musculus [2]) was 28.9 mg/kg. It also gave an ED50 (Rattus norvegicus [11]) of 4.4 mg/kg.

Compound `CN1CCC(Sc2cn(C)c3ccc(Br)cc23)CC1` has an ED50 (Mus musculus [2]) of 8.6 mg/kg and an ED50 (Mus musculus [3]) of 5.4 mg/kg.
